Measurements reported in US7534894B2, “Biphenyloxy-acids” (Wyeth, priority 2003, dated 2009).

How the values were obtained:
[1] = target: T1, recombinant human plasminogen activator inhibitor-1 (PAI-1) (Homo sapiens, UniProt P05121); assay: Primary Screen for the PAI-1 Inhibition (residual tPA activity, chromogenic substrate Spectrozyme-tPA); format: biochemical; settings: 140 nM PAI-1, 70 nM tPA, pH 6.6
T1 construct: purchased Molecular Innovations, Royal Oak, Mich
Procedure: (§1) Test compounds are dissolved in DMSO at a final concentration of 10 mM, then diluted 101× in physiologic buffer. The inhibitory assay is initiated by the addition of the test compound (1-100 μM final concentration, maximum DMSO concentration of 0.2%) in a pH 6.6 buffer containing 140 nM recombinant human plasminogen activator inhibitor-1 (PAI-1; Molecular Innovations, Royal Oak, Mich.). Following a 1 hour incubation at room temperature, 70 nM of recombinant human tissue plasminogen activator (tPA) is added, and the combination of the test compound, PAI-1 and tPA is incubated for an additional 30 minutes. Following the second incubation, Spectrozyme-tPA (American Diagnostica, Greenwich, Conn.), a chromogenic substrate for tPA, is added and absorbance read at 405 nm at 0 and 60 minutes. Relative PAI-1 inhibition is equal to the residual tPA activity in the presence of the test compound and PAI-1. Control treatments include the complete inhibition of tPA by PAI-1 at the molar ratio employed (2:1), and the absence of any effect of the test compound on tPA alone.

[2] = target: T1, recombinant human plasminogen activator inhibitor-1 (PAI-1); assay: Kinetic IC50: modification of the Primary Screen for the PAI-1 Inhibition; format: biochemical
Procedure: as §1

T1 sequence (P05121 24-402): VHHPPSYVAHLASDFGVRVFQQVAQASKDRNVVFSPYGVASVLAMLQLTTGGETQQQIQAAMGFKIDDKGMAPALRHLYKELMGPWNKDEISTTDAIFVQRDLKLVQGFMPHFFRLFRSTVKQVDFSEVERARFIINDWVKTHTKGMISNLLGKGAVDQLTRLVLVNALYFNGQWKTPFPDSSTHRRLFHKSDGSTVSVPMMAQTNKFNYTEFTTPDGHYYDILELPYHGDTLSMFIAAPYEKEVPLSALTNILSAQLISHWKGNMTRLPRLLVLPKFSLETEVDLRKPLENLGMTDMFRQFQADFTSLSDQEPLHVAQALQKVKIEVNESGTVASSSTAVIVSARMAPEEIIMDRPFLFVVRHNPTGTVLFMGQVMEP

Q: `O=C(O)COc1ccc(-c2ccc(CNC(=O)c3cnn(-c4ccccc4)c3C(F)(F)F)cc2)cc1` [Compound 1, ({4′-[({[1-phenyl-5-(trifluoromethyl)-1H-pyrazol-4-yl]carbonyl}amino)methyl][1,1′-biphenyl]-4-yl}oxy)acetic acid] was tested. Which inhibition at 25 µM ([1]; 25 μM test compound) did it give?
A: The inhibition at 25 µM was 1%.

Q: What about the inhibition at 100 µM ([1]; 100 μM test compound) of the same molecule?
A: Its inhibition at 100 µM is 60%.

Q: Which “% Inhibition 25 μM” value ([1]; 25 μM test compound) does the source give for `CCCc1c(C(=O)NCc2ccc(-c3ccc(OCc4nnn[nH]4)c(Br)c3)cc2)cnn1-c1ccccc1` [Compound 5, N-{[3′-bromo-4′-(H-tetraazol-5-ylmethoxy)[1,1′-biphenyl]-4-yl]methyl}-1-phenyl-5-propyl-1H-pyrazole-4-carboxamide] here?
A: The value was 23%.

Q: What about the “% Inhibition 100 μM” value ([1]; 100 μM test compound) of the same molecule?
A: Its value is 73%.

Q: Which inhibition at 25 µM ([1]; 25 μM test compound) does the source give for `CCCCc1oc2ccccc2c1C(=O)N(Cc1ccccc1)Cc1ccc(-c2ccc(OCc3nnn[nH]3)c(Br)c2)cc1` [Compound 11, N-benzyl-N-{[3′-bromo-4′-(1H-tetraazol-5-ylmethoxy)-1,1′-biphenyl-4-yl]methyl}-2-butyl-1-benzofuran-3-carboxamide] here?
A: The inhibition at 25 µM was 53%.

Q: `Cn1cc(C(=O)N(Cc2ccccc2)Cc2ccc(-c3ccc(OCc4nnn[nH]4)c(Br)c3)cc2)c2ccccc21` [Compound 12, N-benzyl-N-{[3′-bromo-4′-(1H-tetraazol-5-ylmethoxy)-1,1′-biphenyl-4-yl]methyl}-1-methyl-1H-indole-3-carboxamide] was tested. Which inhibition at 25 µM ([1]; 25 μM test compound) did it give?
A: Its inhibition at 25 µM is 55%.

Q: `CCCc1ccc(-c2ccc(C(=O)Nc3ccc(-c4ccc(OC(Cc5ccccc5)C(=O)O)cc4)cc3)cc2)cc1` (stereo not drawn) [Compound 20, 3-phenyl-2-[(4′-{[(4′-propyl-1,1′-biphenyl-4-yl)carbonyl]amino}-1,1′-biphenyl-4-yl)oxy]propanoic acid] was tested. Which inhibition at 25 µM ([1]; 25 μM test compound) did it give?
A: Its inhibition at 25 µM is 40%.

Q: What about the inhibition at 100 µM ([1]; 100 μM test compound) of the same molecule?
A: Its inhibition at 100 µM is 66%.

Q: What does the source list for `O=C(Nc1ccc(-c2ccc(OC(Cc3ccccc3)C(=O)O)cc2)cc1)c1ccc(-c2ccc(Cl)cc2)o1` (stereo not drawn) [Compound 21, 2-[(4′-{[5-(4-chlorophenyl)-2-furoyl]amino}-1,1′-biphenyl-4-yl)oxy]-3-phenylpropanoic acid]?
A: inhibition at 25 µM ([1]; 25 μM test compound): 28%; inhibition at 100 µM ([1]; 100 μM test compound): 52%

Q: How did the inhibition at 25 µM ([1]; 25 μM test compound) turn out when `O=C(O)COc1ccc(-c2ccc(NC(=O)C3(c4ccc(Cl)cc4)CCCC3)cc2)cc1` [Compound 22, {[4′-({[1-(4-chlorophenyl)cyclopentyl]carbonyl}amino)-1,1′-biphenyl-4-yl]oxy}acetic acid] was run?
A: Its inhibition at 25 µM is 30%.

Q: What about the inhibition at 100 µM ([1]; 100 μM test compound) of the same molecule?
A: The inhibition at 100 µM was 89%.

Q: Which inhibition at 25 µM ([1]; 25 μM test compound) does the source give for `O=C(O)COc1ccc(-c2ccc(NC(=O)C3(c4cccc(F)c4)CCCC3)cc2)cc1` [Compound 23, {[4′-({[1-(3-fluorophenyl)cyclopentyl]carbonyl}amino)-1,1′-biphenyl-4-yl]oxy}acetic acid] here?
A: The inhibition at 25 µM was 3%.

Q: And the inhibition at 100 µM ([1]; 100 μM test compound)?
A: The inhibition at 100 µM was 77%.

Q: For `O=C(Nc1ccc(-c2cccc(OC(Cc3ccccc3)C(=O)O)c2)cc1)c1cccc2c1-c1ccccc1C2` (stereo not drawn) [Compound 24, 2-({4′-[(9H-fluoren-4-ylcarbonyl)amino]-1,1′-biphenyl-3-yl}oxy)-3-phenylpropanoic acid], which IC50 [2] is on record?
A: Its IC50 is 12.1 µM.

Q: And the inhibition at 25 µM ([1]; 25 μM test compound)?
A: Its inhibition at 25 µM is 36%.

Q: And the inhibition at 100 µM ([1]; 100 μM test compound)?
A: The inhibition at 100 µM was 51%.

Q: `O=C(O)C(Cc1ccccc1)Oc1cccc(-c2ccc(NC(=O)C3(c4ccccc4)CCCC3)cc2)c1` (stereo not drawn) [Compound 25, 3-phenyl-2-[(4′-{[(1-phenylcyclopentyl)carbonyl]amino}-1,1′-biphenyl-3-yl)oxy]propanoic acid] was tested. Which IC50 [2] did it give?
A: The IC50 was 40.8 µM.

Q: What about the inhibition at 25 µM ([1]; 25 μM test compound) of the same molecule?
A: The inhibition at 25 µM was 26%.

Q: What about the inhibition at 100 µM ([1]; 100 μM test compound) of the same molecule?
A: Its inhibition at 100 µM is 74%.

Q: With `O=C(O)C(Cc1ccccc1)Oc1cccc(-c2ccc(NC(=O)C3(c4ccc(Cl)cc4)CCCC3)cc2)c1` (stereo not drawn) [Compound 26, 2-{[4′-({[1-(4-chlorophenyl)cyclopentyl]carbonyl}amino)-1,1′-biphenyl-3-yl]oxy}-3-phenylpropanoic acid] as the molecule, how does the IC50 [2] read?
A: Its IC50 is 16.4 µM.

Q: And the inhibition at 25 µM ([1]; 25 μM test compound)?
A: The inhibition at 25 µM was 58%.

Q: And the inhibition at 100 µM ([1]; 100 μM test compound)?
A: Its inhibition at 100 µM is 69%.

Q: `CCCc1c(C(=O)Nc2ccc(-c3cccc(OC(Cc4ccccc4)C(=O)O)c3)cc2)cnn1-c1ccc(Cl)cc1` (stereo not drawn) [Compound 27, 2-{[4′-({[1-(4-chlorophenyl)-5-propyl-1H-pyrazol-4-yl]carbonyl}amino)-1,1′-biphenyl-3-yl]oxy}-3-phenylpropanoic acid] was tested. Which IC50 [2] did it give?
A: The IC50 was 7.8 µM.

Q: What about the inhibition at 25 µM ([1]; 25 μM test compound) of the same molecule?
A: The inhibition at 25 µM was 20%.

Q: What about the inhibition at 100 µM ([1]; 100 μM test compound) of the same molecule?
A: The inhibition at 100 µM was 63%.

Q: How did the IC50 [2] turn out when `O=C(Nc1ccc(-c2cccc(OC(Cc3ccccc3)C(=O)O)c2)cc1)c1cc2cc(OCc3ccccc3)ccc2[nH]1` (stereo not drawn) [Compound 28, 2-{[4′-({[5-(benzyloxy)-1H-indol-2-yl]carbonyl}amino)-1,1′-biphenyl-3-yl]oxy}-3-phenylpropanoic acid] was run?
A: Its IC50 is 7.41 µM.

Q: What about the inhibition at 25 µM ([1]; 25 μM test compound) of the same molecule?
A: The inhibition at 25 µM was 27%.

Q: What about the inhibition at 100 µM ([1]; 100 μM test compound) of the same molecule?
A: Its inhibition at 100 µM is 70%.

Q: With `O=C(O)C(Cc1ccccc1)Oc1cccc(-c2ccc(NC(=O)C3(c4ccc(Cl)cc4)CC3)cc2)c1` (stereo not drawn) [Compound 29, 2-{[4′-({[1-(4-chlorophenyl)cyclopropyl]carbonyl}amino)-1,1′-biphenyl-3-yl]oxy}-3-phenylpropanoic acid] as the molecule, how does the IC50 [2] read?
A: Its IC50 is 31.2 µM.

Q: What about the inhibition at 25 µM ([1]; 25 μM test compound) of the same molecule?
A: The inhibition at 25 µM was 31%.

Q: And the inhibition at 100 µM ([1]; 100 μM test compound)?
A: The inhibition at 100 µM was 83%.

Q: `O=C(O)C(Cc1ccccc1)Oc1cccc(-c2ccc(NC(=O)C3(c4ccc(Cl)cc4)CCCCC3)cc2)c1` (stereo not drawn) [Compound 51, 2-{[4′-({[1-(4-chlorophenyl)cyclohexyl]carbonyl}amino)-1,1′-biphenyl-3-yl]oxy}-3-phenylpropanoic acid] was tested. Which inhibition at 25 µM ([1]; 25 μM test compound) did it give?
A: Its inhibition at 25 µM is 46%.

Q: What about the inhibition at 100 µM ([1]; 100 μM test compound) of the same molecule?
A: The inhibition at 100 µM was 60%.

Q: What does the source list for `O=C(O)C(Cc1ccccc1)Oc1ccc(-c2ccc(NC(=O)C3(c4ccc(Cl)cc4)CCCC3)cc2)cc1` (stereo not drawn) [Compound 52, 2-{[4′-({[1-(4-chlorophenyl)cyclopentyl]carbonyl}amino)-1,1′-biphenyl-4-yl]oxy}-3-phenylpropanoic acid]?
A: inhibition at 25 µM ([1]; 25 μM test compound): 55%; inhibition at 100 µM ([1]; 100 μM test compound): 53%

Q: `O=C(O)C(Cc1ccccc1)Oc1cccc(-c2ccc(NC(=O)C3(c4ccccc4)CC3)cc2)c1` (stereo not drawn) [Compound 53, 3-phenyl-2-[(4′-{[(1-phenylcyclopropyl)carbonyl]amino}-1,1′-biphenyl-3-yl)oxy]propanoic acid] was tested. Which inhibition at 25 µM ([1]; 25 μM test compound) did it give?
A: The inhibition at 25 µM was 19%.

Q: What about the inhibition at 100 µM ([1]; 100 μM test compound) of the same molecule?
A: Its inhibition at 100 µM is 52%.

Q: Which results are given for `Cc1cc(C)c2c(c1C(=O)Nc1ccc(-c3cccc(OC(Cc4ccccc4)C(=O)O)c3)cc1)CC(C)(C)C2=O` (stereo not drawn) [Compound 54, 3-phenyl-2-[(4′-{[(2,2,5,7-tetramethyl-1-oxo-2,3-dihydro-1H-inden-4-yl)carbonyl]amino}-1,1′-biphenyl-3-yl)oxy]propanoic acid]?
A: inhibition at 25 µM ([1]; 25 μM test compound): 29%; inhibition at 100 µM ([1]; 100 μM test compound): 85%

Q: What does the source list for `O=C(Nc1ccc(-c2ccc(OC(Cc3ccccc3)C(=O)O)cc2)cc1)c1ccc2ccccc2c1` (stereo not drawn) [Compound 55, 2-{[4′-(2-naphthoylamino)-1,1′-biphenyl-4-yl]oxy}-3-phenylpropanoic acid]?
A: inhibition at 25 µM ([1]; 25 μM test compound): 26%; inhibition at 100 µM ([1]; 100 μM test compound): 53%

Q: For `CCCCOc1ccc2cc(C(=O)Nc3ccc(-c4ccc(OC(Cc5ccccc5)C(=O)O)cc4)cc3)ccc2c1` (stereo not drawn) [Compound 56, 2-({4′-[(6-butoxy-2-naphthoyl)amino]-1,1′-biphenyl-4-yl}oxy)-3-phenylpropanoic acid], which inhibition at 100 µM ([1]; 100 μM test compound) is on record?
A: Its inhibition at 100 µM is 53%.

Q: Which inhibition at 25 µM ([1]; 25 μM test compound) does the source give for `O=C(Nc1ccc(-c2ccc(OC(Cc3ccccc3)C(=O)O)cc2)cc1)c1sc2ccccc2c1Cl` (stereo not drawn) [Compound 57, 2-[(4′-{[(3-chloro-1-benzothien-2-yl)carbonyl]amino}-1,1′-biphenyl-4-yl)oxy]-3-phenylpropanoic acid] here?
A: The inhibition at 25 µM was 34%.

Q: What about the inhibition at 100 µM ([1]; 100 μM test compound) of the same molecule?
A: Its inhibition at 100 µM is 58%.
